Measured values: article PMC11648681, “Development of machine learning models for the prediction of the skin sensitization potential of cosmetic compounds” (PeerJ, 2024)
Values joined by “and” are separate entries in the source; they are usually repeats but may differ in a detail not shown here. Equal values may be shown once. Read-outs that look alike come from different tables or passages of the source.

Columns and labels:
THP-1 cells = experiment: CCK-8 cell viability of THP-1 cells after 48 h compound treatment in HaCaT/THP-1 co-culture; type: cell-based, human; details: 48 h
Description: (§1) The co-culture system was set up according to the following described method. […] THP-1 cells were collected, centrifuged, and re-suspended in fresh RPMI-1640 medium supplemented with 10% FBS at 2 × 10^6 cells/mL. Then cells are distributed into HaCaT-seeded 96 wells plate with 80 μL (1.6 × 10^5 cells/well).
(§2) The compounds listed in Table 1 were dissolved in DMSO to create stock solutions with a concentration of 500 mg/mL. Eleven concentrations were subsequently prepared using two-fold serial dilutions. These stock solutions were then further diluted 250-fold in RPMI-1640 + 10% FBS medium. Finally, 80 μL of the prepared solutions were added 1:1 to the treated 96-well plates and incubated for 48 h at 37 °C and 5% CO2.
(§3) After 48 h of treatment, the treated cells were collected 100 μL cells per well. The supernatant medium was added 10 μL of CCK-8 (Life-iLab, Shanghai, China) solution to each well and incubated the plate in the incubator for 2–4 h. THP-1 cell viability was determined using standard calculation methods.
(§4) The cytotoxicity of 15 test compounds listed in Table 1 was assessed using THP-1 cells across a concentration range of 1,000 to 3.9 μg/mL. Cell viability was assessed after 48 h of treatment using the CCK-8 assay.

[1] = as above; type: cell-based, human; details: human; for IC50 at 48 h: THP-1 cells, 48 h treatment, CCK-8, range 1,000 to 3.9 μg/mL, read-out: IC50 (cytotoxicity)
Description: as §1, §2, §3, §4

[2] = THP-1 cells in co-culture with HaCaT cells, 48 h, THP-1, individual replicate values
[3] = THP-1 cells in co-culture with HaCaT cells
[4] = 1.95312 μg/mL, THP-1, individual replicate values
[5] = 3.90625 μg/mL, THP-1, individual replicate values
[6] = 7.8125 μg/mL, THP-1, individual replicate values
[7] = 15.625 μg/mL, THP-1, individual replicate values
[8] = 31.25 μg/mL, THP-1, individual replicate values
[9] = 62.5 μg/mL, THP-1, individual replicate values
[10] = 125 μg/mL, THP-1, individual replicate values
[11] = 250 μg/mL, THP-1, individual replicate values
[12] = 500 μg/mL, THP-1, individual replicate values
[13] = 1000 μg/mL, THP-1, individual replicate values
[14] = THP-1 cells in co-culture with HaCaT cells, 31.25 μg/mL, 48 h, THP-1, individual replicate values, read-out: Cell viability
[15] = 0.976563 μg/mL, THP-1, individual replicate values

SMILES	Cell viability (THP-1 cells; human, 31.25 μg/mL)	viability at 48 h, 31.25 μg/mL ([1]; Cell viability)	viability at 48 h, 0.976563 μg/mL [1, 2]	viability at 48 h, 1.95312 μg/mL [1, 2]	viability at 48 h, 3.90625 μg/mL [1, 2]	viability at 48 h, 15.625 μg/mL [1, 2]	viability at 48 h, 62.5 μg/mL [1, 2]	viability at 48 h, 125 μg/mL [1, 2]	viability at 48 h, 250 μg/mL [1, 2]	viability at 48 h, 500 μg/mL [1, 2]	viability at 48 h, 1000 μg/mL [1, 2]	Cell viability (THP-1 cells; [4])	Cell viability (THP-1 cells; [5])	Cell viability (THP-1 cells; [6])	Cell viability (THP-1 cells; [7])	Cell viability (THP-1 cells; [10])	Cell viability (THP-1 cells; [11])	Cell viability (THP-1 cells; [12])	Cell viability (THP-1 cells; [13])	viability at 48 h, 7.8125 μg/mL [1, 2]	also measured
OCC(O)CO [glycerol, Glycerol]	116.476%	105%	87.7%	93.5%	79.1%	93.7%	110%	90.6%	93.5%	93.4%	98.4%	–	–	–	–	–	–	–	–	–	IC50 at 48 h [1, 3]: > 1000 µg/mL
O=CCc1ccccc1 [phenylacetaldehyde, Phenylacetaldehyde]	–	–	84.7%	85.6%	84.7%	74.2%	15.8%	17%	19.5%	21.5%	18.6%	84.3308%	77.9774%	74.6917%	73.3083%	17.3609%	19.4737%	22.2782%	20.8421%	80.6%	Cell viability (THP-1 cells; [8]): 14.7368%; Cell viability (THP-1 cells; [9]): 15.5263%; final concentration used (highest concentration that maintained at least 80% cell viability) (THP-1 cells; THP-1 cells, CCK-8, single (not double) concentration): 7.8 µg/mL; viability at 48 h, 31.25 μg/mL [1, 14]: 14.8%
Oc1cccc(O)c1 [resorcinol, Resorcinol]	84.1435%	81.4%	86.4%	–	99.3%	86.8%	68%	66.2%	59.3%	56.3%	58.1%	103.314% and 82.4843%	80.4798%	98.5964%	93.1569%	70.9013%	60.5067%	57.2511%	56.1435%	95.8%	Cell viability (THP-1 cells; [15]): 87.3677%; Cell viability (THP-1 cells; [9]): 79.0942%
CC(C)CCCC(C)CCCC(C)CCCCC(C)CCCC(C)CCCC(C)C (stereo not drawn) [squalane, Squalane]	–	–	–	–	85.4%	78.7%	87.1%	98%	83.7%	82%	91.2%	117.419%	88.2476%	84.8%	88.8667%	94.8381%	87.1048%	84.4381%	95.019%	85%	Cell viability (THP-1 cells; [15]): 122.038%; Cell viability (THP-1 cells; [8]): 81.4095%; viability at 48 h, 31.25 μg/mL [1, 14]: 89.3%; IC50 at 48 h [1, 3]: > 1000 µg/mL
